Test results taken from PMC9605497, “Potential of Epidermal Growth Factor-like Peptide from the Sea Cucumber Stichopus horrens to Increase the Growth of Human Cells: In Silico Molecular Docking Approach” (Marine Drugs, 2022).
Entries after “also recorded” stand apart in the source; their conditions may differ.

Tested on: EGF/PDGF pathway genes
Experiment: qPCR array of EGF/PDGF pathway genes
Format: cell-based, human
Design: key to expression class: +: Maximum expression; −: Minimum expression; unc.: Unchanged
Details: 10 nM, 4 h; for fold change: vs serum-free medium
Description: Cells were seeded at 80,000 cells per well of 24-well plates in 400 µL of complete growth medium. Cells were grown in MEM basal medium supplemented with 10% FBS and 1% antibiotic–antimycotic in a humidified incubator at 37 °C, equilibrated with 5% CO2. After 24 h of culture, the medium was removed, washed once with PBS, replaced with serum-free medium and left to culture for another 16 h. Medium was removed and replaced with corresponding treatment medium each in triplicates; 10 nM and 50 nM of Sh-EGFl-1, 10 nM and 50 nM of rhEGF were used as a positive control and serum-free medium was used as a negative control. Cells were harvested after 4 h. Medium was removed and 200 μL of Trizol reagent (Thermo Scientific, Waltham, MA, USA) was immediately added.
RNA extraction was performed according to Trizol reagent manufacturer’s protocol. An elution volume of 15 μL RNase-free water was added before the concentration and purity were determined using NanoDrop.
A total of 100 ng RNA was used initially for the cDNA synthesis reaction. The reaction was carried out according to RT^2 First Strand Kit’s protocol (Qiagen, Venlo, Netherlands). Genomic DNA was removed according to the manufacturer’s protocol prior to cDNA strand generation.
The 10 μL cDNA of human skin cells was diluted with 91 μL prior to qPCR reaction. Primer pairs of 84 genes involved in the EGF pathway, five housekeeping genes such as ribosomal protein large, P0 (RPL0), glyceraldehyde-3-phosphate-dehydrogenase (GAPDH), beta-actin (ACTB), beta-2-microglobulin (B2M) and hypoxanthine phosphoribosyltransferase 1 (HPRT1), one positive control gene for genomic DNA contamination, three reverse transcription control genes and three PCR-positive controls were included in the Qiagen PAHS-040ZA qPCR array plate (Qiagen, Venlo, Netherlands). A list of all genes analyzed in this study is available in Supplementary Materials Table S7. The mixture reaction was prepared according to the protocol and run using BioRad CFX96TM. Samples of 10 nM rhEGF and 10 nM Sh-EGFl-1 were prepared in duplicates. The following thermal profile was applied: 1 cycle at 95 °C for 10 min, 40 cycles at 95 °C for 15 s, 60 °C for 1 min, with the ramp rate from 95 °C to 60 °C was set at 1 °C every second. The data were then analyzed through Qiagen web portal. Data for serum-free medium were selected as a control group and the differences in gene expression between control and treatment groups were calculated using the 2^(−delta delta CT) method. The difference, known as fold change, was obtained from the delta delta CT values, which are the genes of interest and the average housekeeping genes, followed by the delta delta CT (delta CT (treatment group)—delta CT (control group)).

[1] = IKBKB (IKK), PLC gamma signaling
[2] = PLCG1 (PLC), PLC gamma signaling
[3] = PPP2CA (TSC2), PLC gamma signaling
[4] = RASA1 (p120GAP), MAPK signaling
[5] = RPS6KA5 (p70S6K), MAPK signaling
[6] = RPS6KA5 (p70S6K), PI3K signaling
[7] = RPS6KA5 (p70S6K), PLC gamma signaling
[8] = RPS6KB1 (p70S6K), MAPK signaling
[9] = RPS6KB1 (p70S6K), PI3K signaling
[10] = RPS6KB1 (p70S6K), PLC gamma signaling

In the case of “H-NINECFSSPCENQGICQDEIDGYNCVCQPGFTGTHCESSMLNHVI-OH (disulfide) [Sh-EGFl-1, 45 amino acid EGF-like peptide from Stichopus horrens contig 498513, synthesized by Fmoc solid-phase peptide chemistry]”, the “gene expression of individual genes, in words” value is reported as “relatively high expression of MAPK8, MAPK9, MAP2K7, MKK, MAPK1, ELK1 and c-JUN; also recorded: high expression of Src, Ras, Kras and Raf; also recorded: IL-2 is minimally expressed; also recorded: increased expression of the adaptor proteins Shc, Sos and Grb2”, the signaling pathways activated (qPCR array) is reported as “phosphoinositide 3-kinase (PI3K), mitogen-activated protein kinase (MAPK), phospholipase C gamma (PLC-gamma), Janus kinase-signal transducer and activator of transcription (JAK-STAT) and Ras homologous (Rho) pathways; also recorded: PI3K–AKT–GSK3, Ras–Raf–MEK–ERK–MAPK, PLC gamma, STAT and Rho signaling pathways” and the “gene expression profile, EGF/PDGF pathway” value (qPCR array heat map) is reported as “upregulation of most genes involved in EGF/PDGF pathways”. For the same substance, the expression class (AKT1, PI3K signaling) was “+”, the fold change (AKT1, PI3K signaling) was “(0.95)” and the expression class (AKT3, PI3K signaling) was “+”. For the same substance, the fold change (AKT3, PI3K signaling) was “(1.11)”, the expression class (ATF1, MAPK signaling) was “+” and the expression class (ATF2, MAPK signaling) was “+”. For the same substance, the fold change (ATF2, MAPK signaling) was “(0.89)”, the expression class (CASP3, MAPK signaling) was “+” and the fold change (CASP3, MAPK signaling) was “(1.05)”. The expression class (CASP9, MAPK signaling) was “+”, the fold change (CASP9, MAPK signaling) was “(0.93)” and the expression class (CBL, MAPK signaling) was “−”. For the same substance, the fold change (CBL, MAPK signaling) was “(1.00)”, the expression class (CCND1, PI3K signaling) was “−” and the fold change (CCND1, PI3K signaling) was “(1.17)”. The expression class (DUSP1, MAPK signaling) was “+”, the fold change (DUSP1, MAPK signaling) was “(0.97)” and the expression class (DUSP6, MAPK signaling) was “+”. The fold change (DUSP6, MAPK signaling) was “(1.05)”, the expression class (E1F4E, PI3K signaling) was “+” and the fold change (E1F4E, PI3K signaling) was “(1.28)”. For the same substance, the expression class (ELK1, JAK-STAT signaling) was “+”, the fold change (ELK1, JAK-STAT signaling) was “(1.08)” and the expression class (FOS, JAK-STAT signaling) was “+”. For the same substance, the fold change (FOS, JAK-STAT signaling) was “(1.50)”, the expression class (GAB1, PI3K signaling) was “+” and the fold change (GAB1, PI3K signaling) was “(1.00)”. The expression class (GRB2, PI3K signaling) was “+”, the fold change (GRB2, PI3K signaling) was “(1.07)” and the expression class (GSK3A, PI3K signaling) was “unc”. For the same substance, the fold change (GSK3A, PI3K signaling) was “(0.87)”, the expression class (GSK3B, PI3K signaling) was “+” and the fold change (GSK3B, PI3K signaling) was “(1.06)”. For the same substance, the expression class (HRAS, MAPK signaling) was “+”, the fold change (HRAS, MAPK signaling) was “(0.93)” and the expression class (IKBKB (IKK), PI3K signaling) was “+”. The fold change (IKBKB (IKK), PI3K signaling) was “(1.06)”, the expression class [1] was “+” and the fold change [1] was “(1.06)”. For the same substance, the expression class (IKBKB, MAPK signaling) was “+”, the expression class (JAK1, JAK-STAT signaling) was “+” and the fold change (JAK1, JAK-STAT signaling) was “(1.02)”. The expression class (JUN, JAK-STAT signaling) was “+”, the fold change (JUN, JAK-STAT signaling) was “(1.32)” and the expression class (MAP2K1 (MEK1), MAPK signaling) was “unc”. The fold change (MAP2K1 (MEK1), MAPK signaling) was “(0.91)”, the expression class (MAP2K4 (MKK4), MAPK signaling) was “unc” and the fold change (MAP2K4 (MKK4), MAPK signaling) was “(0.84)”. The expression class (MAP2K7 (MKK7), MAPK signaling) was “+”, the fold change (MAP2K7 (MKK7), MAPK signaling) was “(1.0)” and the expression class (MAP3K2 (MEKK2), MAPK signaling) was “+”. For the same substance, the fold change (MAP3K2 (MEKK2), MAPK signaling) was “(1.27)”, the expression class (MAPK1 (ERK2), MAPK signaling) was “+” and the fold change (MAPK1 (ERK2), MAPK signaling) was “(1.03)”. The expression class (MAPK3 (ERK1), MAPK signaling) was “+”, the fold change (MAPK3 (ERK1), MAPK signaling) was “(0.98)” and the expression class (MAPK8, MAPK signaling) was “+”. The fold change (MAPK8, MAPK signaling) was “(0.99)”, the expression class (MAPK9, MAPK signaling) was “unc” and the fold change (MAPK9, MAPK signaling) was “(0.80)”. For the same substance, the expression class (MAPK10, MAPK signaling) was “−”, the fold change (MAPK10, MAPK signaling) was “(0.55)” and the expression class (MKNK1, MAPK signaling) was “−”. For the same substance, the fold change (MKNK1, MAPK signaling) was “(0.82)”, the expression class (NFATC3, MAPK signaling) was “+” and the fold change (NFATC3, MAPK signaling) was “(1.22)”. For the same substance, the expression class (NFKB, PI3K signaling) was “+”, the fold change (NFKB, PI3K signaling) was “(1.02)” and the expression class (NFKB, PLC gamma signaling) was “+”. For the same substance, the fold change (NFKB, PLC gamma signaling) was “(1.02)”, the expression class (P13KCA, PI3K signaling) was “+” and the fold change (P13KCA, PI3K signaling) was “(1.47)”. For the same substance, the expression class (PDPK1 (PDK1), PI3K signaling) was “unc”, the fold change (PDPK1 (PDK1), PI3K signaling) was “(0.95)” and the expression class (PIK3R1, PI3K signaling) was “+”. The fold change (PIK3R1, PI3K signaling) was “(0.98)”, the expression class (PIK3R2, PI3K signaling) was “+” and the fold change (PIK3R2, PI3K signaling) was “(1.17)”. The expression class [2] was “+”, the fold change [2] was “(1.18)” and the expression class [3] was “+”. The fold change [3] was “(0.94)”, the expression class (PRKCA, PLC gamma signaling) was “+” and the fold change (PRKCA, PLC gamma signaling) was “(1.10)”. The expression class (RAP1A, MAPK signaling) was “+”, the fold change (RAP1A, MAPK signaling) was “(1.14)” and the expression class [4] was “+”. The fold change [4] was “(1.07)”, the expression class (RHOA, Rho signaling) was “+” and the fold change (RHOA, Rho signaling) was “(1.08)”. For the same substance, the expression class [5] was “+”, the fold change [5] was “(0.97)” and the expression class [6] was “+”. For the same substance, the fold change [6] was “(0.97)”, the expression class [7] was “+” and the fold change [7] was “(0.97)”. For the same substance, the expression class [8] was “+”, the fold change [8] was “(1.00)” and the expression class [9] was “+”. For the same substance, the fold change [9] was “(1.00)”, the expression class [10] was “+” and the fold change [10] was “(1.00)”. For the same substance, the expression class (SHC1, MAPK signaling) was “+”, the fold change (SHC1, MAPK signaling) was “(0.94)” and the expression class (SHC1, PI3K signaling) was “+”. For the same substance, the fold change (SHC1, PI3K signaling) was “(0.94)”, the expression class (SRC, JAK-STAT signaling) was “+” and the fold change (SRC, JAK-STAT signaling) was “(1.18)”. The expression class (STAT3, JAK-STAT signaling) was “+”, the fold change (STAT3, JAK-STAT signaling) was “(1.06)” and the expression class (STAT5, JAK-STAT signaling) was “+”. The fold change (STAT5, JAK-STAT signaling) was “(1.06)”, the expression class (TP53, MAPK signaling) was “+” and the fold change (TP53, MAPK signaling) was “(0.96)”. The expression class (TP53, PI3K signaling) was “+” and the fold change (TP53, PI3K signaling) was “(0.96)”.
